Patent US20250161216A1, “CATIONIC LIPID ANALOGUES, COMPOSITIONS AND USES THEREOF” (GUANGZHOU LIDE BIOMEDICINE TECHNOLOGY CO., LTD., priority 2022, published 2025)

system: C57BL/6 mice; test: In vivo expression level of Luciferase-mRNA delivered by intravenous injection (bioluminescence imaging); conditions: mRNA-loaded nanoparticles, compounds of Example 1; intravenous (tail vein), 5 μg Luciferase-mRNA, 6 hours
Protocol: Luciferase-mRNA was used as an mRNA model; and the cationic lipid analogues of Examples 1-5 were used to prepare drug-loaded nanoparticles according to the method of Example 6.
200 μL of nanoparticles containing 5 μg Luciferase-mRNA or the drug-loaded nanoparticles prepared above were injected into tail veins of 6-8 week-old C57BL/6 mice, and 200 μL of 1×PBS solution containing 3 mg D-Luciferin potassium salt was intraperitoneally injected into the mice 6 hours later. After waiting for 10 minutes, an in vivo expression level of the mRNA was evaluated by bioluminescence imaging.

Structure (SMILES) | Fluorescence intensity of liver
CCCCCCCC/C=C\CCCCCCCC(=O)N(CCN(C)C)C(C(=O)NCCCCCCCCCCCCCCCCCC)C(C)C (stereo not shown) [A1I18R1C18-1] | 5.08E+05
CCCCC/C=C\C/C=C\CCCCCCCC(=O)N(CCN(C)C)C(C(=O)NCCCCCCCCCCCCCCCCCC)C(C)C (stereo not shown) [A1I18R1C18-2] | 2.27E+05
CC/C=C\C/C=C\C/C=C\CCCCCCCC(=O)N(CCN(C)C)C(C(=O)NCCCCCCCCCCCCCCCCCC)C(C)C (stereo not shown) [A1I18R1C18-3] | 1.88E+06
CCCCCCCCCCCCCCCCCCNC(=O)C(C(C)C)N(CCN(C)C)C(=O)CCCCCCCCCCCCCCCCC (stereo not shown) [A1I18R1C18] | 6.37E+03
CCCCCCCCCCCCC#CC#CCCCCCCCCC(=O)N(CCN(C)C)C(C(=O)NCCCCCCCCCCCCCCCCCC)C(C)C (stereo not shown) [A1I18R1C23] | 9.51E+05
CCCCCCCC/C=C\CCCCCCCC(=O)N(CCCN(C)C)C(C(=O)NCCCCCCCCCCCCCCCCCC)C(C)C (stereo not shown) [A1I18R2C18-1] | 2.63E+04
CC/C=C\C/C=C\C/C=C\CCCCCCCC(=O)N(CCCN(C)C)C(C(=O)NCCCCCCCCCCCCCCCCCC)C(C)C (stereo not shown) [A1I18R2C18-3] | 6.77E+04
CCCCCCCCCCCCC#CC#CCCCCCCCCC(=O)N(CCCN(C)C)C(C(=O)NCCCCCCCCCCCCCCCCCC)C(C)C (stereo not shown) [A1I18R2C23] | 2.70E+05
CCCCCCCC/C=C\CCCCCCCC(=O)N(CCCN(CC)CC)C(C(=O)NCCCCCCCCCCCCCCCCCC)C(C)C (stereo not shown) [A1I18R3C18-1] | 9.29E+03
CCCCC/C=C\C/C=C\CCCCCCCC(=O)N(CCCN(CC)CC)C(C(=O)NCCCCCCCCCCCCCCCCCC)C(C)C (stereo not shown) [A1I18R3C18-2] | 1.48E+05
CC/C=C\C/C=C\C/C=C\CCCCCCCC(=O)N(CCCN(CC)CC)C(C(=O)NCCCCCCCCCCCCCCCCCC)C(C)C (stereo not shown) [A1I18R3C18-3] | 2.22E+04
CCCCCCCCCCCCCCCCCCNC(=O)C(C(C)C)N(CCCN(CC)CC)C(=O)CCCCCCCCCCCCCCCCC (stereo not shown) [A1I18R3C18] | 3.91E+03
CCCCCCCCCCCCC#CC#CCCCCCCCCC(=O)N(CCCN(CC)CC)C(C(=O)NCCCCCCCCCCCCCCCCCC)C(C)C (stereo not shown) [A1I18R3C23] | 7.67E+04

same assay, conditions: mRNA-loaded nanoparticles, compounds of Example 2; intravenous (tail vein), 5 μg Luciferase-mRNA, 6 hours

Structure (SMILES) | Bioluminescence intensity | Fluorescence intensity of spleen
CCCCCCCC/C=C\CCCCCCCC(=O)N(CCCN(C)C)C(C(=O)NCCN(C)CCNC(=O)C(C(C)C)N(CCCN(C)C)C(=O)CCCCCCC/C=C\CCCCCCCC)C(C)C (stereo not shown) [A1I4R2C18-1] | 8.80E+02 | –
CCCCC/C=C\C/C=C\CCCCCCCC(=O)N(CCCN(C)C)C(C(=O)NCCN(C)CCNC(=O)C(C(C)C)N(CCCN(C)C)C(=O)CCCCCCC/C=C\C/C=C\CCCCC)C(C)C (stereo not shown) [A1I4R2C18-2] | – | 3.18E+03
CCCCCCCCCCCCCCCCCC(=O)N(CCCN(C)C)C(C(=O)NCCN(C)CCNC(=O)C(C(C)C)N(CCCN(C)C)C(=O)CCCCCCCCCCCCCCCCC)C(C)C (stereo not shown) [A1I4R2C18] | – | 1.79E+04
CCCCCCCC/C=C\CCCCCCCC(=O)N(CCN1CCCCCC1)C(C(=O)NCCN(C)CCNC(=O)C(C(C)C)N(CCN1CCCCCC1)C(=O)CCCCCCC/C=C\CCCCCCCC)C(C)C (stereo not shown) [A1I4R13C18-1] | – | 2.67E+03
CCCCC/C=C\C/C=C\CCCCCCCC(=O)N(CCN1CCCCCC1)C(C(=O)NCCN(C)CCNC(=O)C(C(C)C)N(CCN1CCCCCC1)C(=O)CCCCCCC/C=C\C/C=C\CCCCC)C(C)C (stereo not shown) [A1I4R13C18-2] | – | 2.85E+04
CCCCCCCCCCCCCCCCCC(=O)N(CCN1CCCCCC1)C(C(=O)NCCN(C)CCNC(=O)C(C(C)C)N(CCN1CCCCCC1)C(=O)CCCCCCCCCCCCCCCCC)C(C)C (stereo not shown) [A1I4R13C18] | 5.76E+02 | –
CCCCCCCCCCCCCCCCCC(=O)N(CCC)C(C(=O)NCCN(C)CCNC(=O)C(C(C)C)N(CCC)C(=O)CCCCCCCCCCCCCCCCC)C(C)C (stereo not shown) [A1I4R21C18] | – | 3.46E+04
CCCCCCCCCCCC(=O)N(CCO)C(C(=O)NCCN(C)CCNC(=O)C(C(C)C)N(CCO)C(=O)CCCCCCCCCCC)C(C)C (stereo not shown) [A1I4R22C12] | – | 3.90E+03
CCCCCCCCCCCCCC(=O)N(CCO)C(C(=O)NCCN(C)CCNC(=O)C(C(C)C)N(CCO)C(=O)CCCCCCCCCCCCC)C(C)C (stereo not shown) [A1I4R22C14] | – | 2.30E+03
CCCCCCCCCCCCCCCC(=O)N(CCO)C(C(=O)NCCN(C)CCNC(=O)C(C(C)C)N(CCO)C(=O)CCCCCCCCCCCCCCC)C(C)C (stereo not shown) [A1I4R22C16] | – | 2.30E+03
CCCCCCCCCCCCCCCCCC(=O)N(CCO)C(C(=O)NCCN(C)CCNC(=O)C(C(C)C)N(CCO)C(=O)CCCCCCCCCCCCCCCCC)C(C)C (stereo not shown) [A1I4R22C18] | – | 1.10E+05
CCCCCCSSCCC(=O)N(CCO)C(C(=O)NCCN(C)CCNC(=O)C(C(C)C)N(CCO)C(=O)CCSSCCCCCC)C(C)C (stereo not shown) [A1I4R22S11] | – | 1.00E+03
CCCCCCCCSSCCC(=O)N(CCO)C(C(=O)NCCN(C)CCNC(=O)C(C(C)C)N(CCO)C(=O)CCSSCCCCCCCC)C(C)C (stereo not shown) [A1I4R22S13] | – | 5.90E+03
CCCCCCCCCCSSCCC(=O)N(CCO)C(C(=O)NCCN(C)CCNC(=O)C(C(C)C)N(CCO)C(=O)CCSSCCCCCCCCCC)C(C)C (stereo not shown) [A1I4R22S15] | – | 4.10E+03
CCCCCCCCCCCCSSCCC(=O)N(CCO)C(C(=O)NCCN(C)CCNC(=O)C(C(C)C)N(CCO)C(=O)CCSSCCCCCCCCCCCC)C(C)C (stereo not shown) [A1I4R22S17] | – | 1.80E+04
CCCCCCCCCCCCCCSSCCC(=O)N(CCO)C(C(=O)NCCN(C)CCNC(=O)C(C(C)C)N(CCO)C(=O)CCSSCCCCCCCCCCCCCC)C(C)C (stereo not shown) [A1I4R22S19] | – | 2.50E+04
CCCCCCCC/C=C\CCCCCCCC(=O)N(CCCN(C)C)C(C(=O)NCCN(C)CCNC(=O)C(C(CC)CCCC)N(CCCN(C)C)C(=O)CCCCCCC/C=C\CCCCCCCC)C(CC)CCCC (stereo not shown) [A4I4R2C18-1] | – | 1.13E+03
CCCCC/C=C\C/C=C\CCCCCCCC(=O)N(CCCN(C)C)C(C(=O)NCCN(C)CCNC(=O)C(C(CC)CCCC)N(CCCN(C)C)C(=O)CCCCCCC/C=C\C/C=C\CCCCC)C(CC)CCCC (stereo not shown) [A4I4R2C18-2] | – | 1.86E+04
CCCCCCCCCCCCCCCCCC(=O)N(CCCN(C)C)C(C(=O)NCCN(C)CCNC(=O)C(C(CC)CCCC)N(CCCN(C)C)C(=O)CCCCCCCCCCCCCCCCC)C(CC)CCCC (stereo not shown) [A4I4R2C18] | – | 2.24E+03
CCCCCCCC/C=C\CCCCCCCC(=O)N(CCN1CCCCCC1)C(C(=O)NCCN(C)CCNC(=O)C(C(CC)CCCC)N(CCN1CCCCCC1)C(=O)CCCCCCC/C=C\CCCCCCCC)C(CC)CCCC (stereo not shown) [A4I4R13C18-1] | – | 1.59E+03
CCCCC/C=C\C/C=C\CCCCCCCC(=O)N(CCN1CCCCCC1)C(C(=O)NCCN(C)CCNC(=O)C(C(CC)CCCC)N(CCN1CCCCCC1)C(=O)CCCCCCC/C=C\C/C=C\CCCCC)C(CC)CCCC (stereo not shown) [A4I4R13C18-2] | – | 1.19E+04
CCCCCCCCCCCCCCCCCC(=O)N(CCN1CCCCCC1)C(C(=O)NCCN(C)CCNC(=O)C(C(CC)CCCC)N(CCN1CCCCCC1)C(=O)CCCCCCCCCCCCCCCCC)C(CC)CCCC (stereo not shown) [A4I4R13C18] | – | 2.79E+03
CCCCCCCC/C=C\CCCCCCCC(=O)N(CCC)C(C(=O)NCCN(C)CCNC(=O)C(C(CC)CCCC)N(CCC)C(=O)CCCCCCC/C=C\CCCCCCCC)C(CC)CCCC (stereo not shown) [A4I4R21C18-1] | – | 3.02E+04

same assay, conditions: mRNA-loaded nanoparticles, compounds of Example 3; intravenous (tail vein), 5 μg Luciferase-mRNA, 6 hours

Structure (SMILES) | Fluorescence intensity of spleen
CCCCCCCC(=O)N(CCO)C(C(=O)NCCN(CCNC(=O)C(C(C)C)N(CCO)C(=O)CCCCCCC)CCNC(=O)C(C(C)C)N(CCO)C(=O)CCCCCCC)C(C)C (stereo not shown) [A1I5R22C8] | 1.50E+05
CCCCCCCCCC(=O)N(CCO)C(C(=O)NCCN(CCNC(=O)C(C(C)C)N(CCO)C(=O)CCCCCCCCC)CCNC(=O)C(C(C)C)N(CCO)C(=O)CCCCCCCCC)C(C)C (stereo not shown) [A1I5R22C10] | 3.00E+05
CCCCCCCCCCCC(=O)N(CCO)C(C(=O)NCCN(CCNC(=O)C(C(C)C)N(CCO)C(=O)CCCCCCCCCCC)CCNC(=O)C(C(C)C)N(CCO)C(=O)CCCCCCCCCCC)C(C)C (stereo not shown) [A1I5R22C12] | 2.96E+06
CCCCCCCCCCCCCCCC(=O)N(CCO)C(C(=O)NCCN(CCNC(=O)C(C(C)C)N(CCO)C(=O)CCCCCCCCCCCCCCC)CCNC(=O)C(C(C)C)N(CCO)C(=O)CCCCCCCCCCCCCCC)C(C)C (stereo not shown) [A1I5R22C16] | 4.10E+05
CCCCC/C=C\C/C=C\CCCCCCCC(=O)N(CCO)C(C(=O)NCCN(CCNC(=O)C(C(C)C)N(CCO)C(=O)CCCCCCC/C=C\C/C=C\CCCCC)CCNC(=O)C(C(C)C)N(CCO)C(=O)CCCCCCC/C=C\C/C=C\CCCCC)C(C)C (stereo not shown) [A1I5R22C18-2] | 6.90E+05
CCCCCCCCCCCCCCCCCC(=O)N(CCO)C(C(=O)NCCN(CCNC(=O)C(C(C)C)N(CCO)C(=O)CCCCCCCCCCCCCCCCC)CCNC(=O)C(C(C)C)N(CCO)C(=O)CCCCCCCCCCCCCCCCC)C(C)C (stereo not shown) [A1I5R22C18] | 1.10E+05
CCCCCCSSCCC(=O)N(CCO)C(C(=O)NCCN(CCNC(=O)C(C(C)C)N(CCO)C(=O)CCSSCCCCCC)CCNC(=O)C(C(C)C)N(CCO)C(=O)CCSSCCCCCC)C(C)C (stereo not shown) [A1I5R22S11] | 1.30E+05
CCCCCCCCCCCCSSCCC(=O)N(CCO)C(C(=O)NCCN(CCNC(=O)C(C(C)C)N(CCO)C(=O)CCSSCCCCCCCCCCCC)CCNC(=O)C(C(C)C)N(CCO)C(=O)CCSSCCCCCCCCCCCC)C(C)C (stereo not shown) [A1I5R22S17] | 6.40E+05
CCCCCCCCCCCCCCSSCCC(=O)N(CCO)C(C(=O)NCCN(CCNC(=O)C(C(C)C)N(CCO)C(=O)CCSSCCCCCCCCCCCCCC)CCNC(=O)C(C(C)C)N(CCO)C(=O)CCSSCCCCCCCCCCCCCC)C(C)C (stereo not shown) [A1I5R22S19] | 1.80E+06
CCCCCCCCCCCCN(C(=O)CO)C(C(=O)NCCN(CCNC(=O)C(C(C)C)N(CCCCCCCCCCCC)C(=O)CO)CCNC(=O)C(C(C)C)N(CCCCCCCCCCCC)C(=O)CO)C(C)C (stereo not shown) [A1I5R50C21] | 3.60E+06
